Measured values taken from patent US10364267B2, “Deuterated bile acid derivatives as FXR/TGR5 agonists and methods of use thereof” (ENANTA PHARMACEUTICALS, INC., priority 2016, dated 2019).

Molecular target: T1, human FXR (NR1H4) (Homo sapiens, UniProt Q96RI1)
T1 construct: host or cells: CHO (Chinese hamster ovary) reporter cells
T1 sequence (Q96RI1 1-486): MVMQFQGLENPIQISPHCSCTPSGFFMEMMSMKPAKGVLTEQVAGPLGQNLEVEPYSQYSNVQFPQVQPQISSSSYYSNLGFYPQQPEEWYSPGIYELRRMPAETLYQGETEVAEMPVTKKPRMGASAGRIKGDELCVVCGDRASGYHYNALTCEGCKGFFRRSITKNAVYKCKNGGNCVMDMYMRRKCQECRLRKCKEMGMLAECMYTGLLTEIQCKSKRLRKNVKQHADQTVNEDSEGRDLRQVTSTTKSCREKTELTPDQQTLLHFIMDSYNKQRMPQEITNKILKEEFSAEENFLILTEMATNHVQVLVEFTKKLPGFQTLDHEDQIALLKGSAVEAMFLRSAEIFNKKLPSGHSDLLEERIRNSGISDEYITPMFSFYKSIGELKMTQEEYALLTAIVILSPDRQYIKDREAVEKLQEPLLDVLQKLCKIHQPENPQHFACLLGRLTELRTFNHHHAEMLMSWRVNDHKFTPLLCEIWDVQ
Test: Human FXR (NR1H4) Assay (luciferase reporter, Indigo Bioscience kit)
Format: cell-based
Details: for Efficacy (%): efficacy normalized to CDCA set as 100%, CHO reporter cells expressing human NR1H4
Description: Human FXR (NR1H4) Assay Determination of a ligand mediated Gal4 promoter driven transactivation to quantify ligand binding mediated activation of FXR. FXR Reporter Assay kit purchased from Indigo Bioscience (Catalogue number: IB00601) to determine the potency and efficacy of compound developed by Enanta that can induce FXR activation. The principle application of this reporter assay system is to quantify functional activity of human FXR. The assay utilizes non-human mammalian cells, CHO (Chinese hamster ovary) cells engineered to express human NR1H4 protein (referred to as FXR). Reporter cells also incorporate the cDNA encoding beetle luciferase which catalyzes the substrates and yields photon emission. Luminescence intensity of the reaction is quantified using a plate-reading luminometer, Envision. Reporter Cells include the luciferase reporter gene functionally linked to an FXR responsive promoter. Thus, quantifying changes in luciferase expression in the treated reporter cells provides a sensitive surrogate measure of the changes in FXR activity. […] The assay is according to the manufacturer's instructions. In brief, the assay was performed in white, 96 well plates using final volume of 100 ul containing cells with different doses of compounds. Retrieve Reporter Cells from −80° C. storage. Perform a rapid thaw of the frozen cells by transferring a 10 ml volume of 37° C. cell recovery medium into the tube of frozen cells. Recap the tube of Reporter Cells and immediately place it in a 37° C. water bath for 5-10 minutes. Retrieve the tube of Reporter Cell Suspension from the water bath. Sanitize the outside surface of the tube with a 70% alcohol swab, and then transfer it into the cell culture hood. Dispense 90 μl of cell suspension into each well of the 96-well Assay Plate. Transfer the plate into 37° C. incubator, allowing the cells adherent to the bottom of the well. Dilute compounds in Dilution Plate (DP), and administrate to cells at Assay Plate (AP). DMSO content of the samples was kept at 0.2%. Cells were incubated for additional 22 hours before luciferase activities were measured. Thirty minutes before intending to quantify FXR activity, remove Detection Substrate and Detection Buffer from the refrigerator and place them in a low-light area so that they may equilibrate to room temperature. Remove the plate's lid and discard all media contents by ejecting it into an appropriate waste container. Gently tap the inverted plate onto a clean absorbent paper towel to remove residual droplets. Cells will remain tightly adhered to well bottoms. Add 100 μl of luciferase detection reagent to each well of the assay plate. […] Set the instrument (Envision) to perform a single 5 second “plate shake” prior to reading the first assay well. Read time may be 0.5 second (500 mSec) per well.

Structure (SMILES)	EC50	Efficacy (%)
[2H]C([C@@H]1[C@@H]2C[C@H](O)CC[C@]2(C)C2CC[C@@]3(C)C(CC[C@@H]3[C@H](C)CCNC(=O)NS(=O)(=O)c3ccc(C(C)(C)C)cc3)C2[C@]1([2H])O)C([2H])([2H])[2H] (stereo partly shown) [Example 4]	< 100 nM	197%
[2H]C([C@@H]1[C@@H]2C[C@H](O)CC[C@]2(C)C2CC[C@@]3(C)C(CC[C@@H]3[C@H](C)CCNC(=O)NS(=O)(=O)N(C)C)C2[C@]1([2H])O)C([2H])([2H])[2H] (stereo partly shown) [Example 5]	100 to 1000 nM	352. %
